These results are taken from patent US12599600B2, “Compositions and methods for preventing and treating headache through enhancing 2-arachydonyl glyerol activity” (Arizona Board of Regents on Behalf of the University of …, priority 2020, dated 2026).

Test [1] deals with cortical KCl induced periorbital allodynia in female rats. The experiment in a line: Cortical KCl induced periorbital (facial) allodynia in female rats. The test is classed as in vivo, rat. Particulars: for reversal of periorbital allodynia / prevention of periorbital allodynia: female rats. As for the experimental part: FIG. 2A-D: Cortical KCl, but not dural KCl, induces periorbital allodynia in female rats and activates cFOS. A. Cortical KCl (0.5 μL, 1M) induces significant periorbital allodynia that is not blocked by dural lidocaine (2%, 5 μl, 10-15 min) pretreatment. […] C. Comparing areas under the curves for A and B confirmed that cortical KCl, regardless of dural lidocaine, induces significant periorbital allodynia that is not replicated by dural application of KCl. D. Cortical KCl allodynia increases cortical cFos 90 min post-injection (n=3-4/group). Data are mean±SEM (n=8-11), one or two-way ANOVA, *p<0.05: **<0.01: ***p<0.001: dotted line-naïve.
FIG. 8A-B: MAGL inhibition alleviates cortical KCl induced periorbital allodynia in female rats. […] Data are expressed mean±SEM (n=8-12), two-way RMANOVA Bonferroni, *p<0.051 **p<0.01: ****p<0.0001.
FIG. 9A-B: ABHD6 inhibition alleviates cortical KCl induced periorbital allodynia in female rats. […] Data are expressed mean±SEM (n=8-12), two-way RMANOVA Bonferroni, *p<0.05: **p<0.01: ***p<0.001.
FIG. 10A-B: Dual MAGL/ABHD6 inhibition alleviates cortical KCl induced periorbital allodynia in female rats. […] Data are expressed mean±SEM (n=7-14), two-way RMANOVA, Bonferroni, *p<0.05: **p<0.01: ****p<0.0001.
FIG. 13A-B: MAGL inhibition and cannabinoid receptor selectivity. Injection of CB1R antagonist, rimonabant (1 mg/kg, IP) prior to KCl shifted onset of MJN110 (10 mg/kg, IP) by 30 min. CB2R antagonist, SR144528 (1 mg/kg, IP), injected prior to KCl blocked the anti-allodynic effect of MJN110. Data are expressed mean±SEM (n=9), one- and two-way ANOVA, *p<0.05, ***p<0.001, ****p<0.0001.
Data are expressed mean±SEM (n=8-12), two-way RMANOVA Bonferroni, *p<0.051 **p<0.01: ****p<0.0001.
Data are expressed mean±SEM (n=8-12), two-way RMANOVA Bonferroni, *p<0.05: **p<0.01: ***p<0.001.
Data are expressed mean+SEM (n=7-14), two-way RMANOVA, Bonferroni, *p<0.05: **p<0.01: ****p<0.0001.
Injection of CB1R antagonist, rimonabant (1 mg/kg, IP) prior to KCl shifted onset of MJN110 (10 mg/kg, IP) by 30 min. CB2R antagonist, SR144528 (1 mg/kg, IP), injected prior to KCl blocked the anti-allodynic effect of MJN110. Data are expressed mean #SEM (n=9), one- and two-way ANOVA, *p<0.05, ***p<0.001, ****p<0.0001.

Test [2] has as its target T1, CB2R (Homo sapiens, UniProt P34972). To be noted: cited from earlier work.
The target in test [3] is T1, CB2R. Particulars: cited from earlier work. The source holds these as a separate data set.
Test [4] addresses GPR55 (Homo sapiens, UniProt Q9Y2T6). To be noted: cited from earlier work.
Test [5] concerns migraine pain. To be noted: preclinical, cited from earlier work.

T1 sequence (P34972 whole entry): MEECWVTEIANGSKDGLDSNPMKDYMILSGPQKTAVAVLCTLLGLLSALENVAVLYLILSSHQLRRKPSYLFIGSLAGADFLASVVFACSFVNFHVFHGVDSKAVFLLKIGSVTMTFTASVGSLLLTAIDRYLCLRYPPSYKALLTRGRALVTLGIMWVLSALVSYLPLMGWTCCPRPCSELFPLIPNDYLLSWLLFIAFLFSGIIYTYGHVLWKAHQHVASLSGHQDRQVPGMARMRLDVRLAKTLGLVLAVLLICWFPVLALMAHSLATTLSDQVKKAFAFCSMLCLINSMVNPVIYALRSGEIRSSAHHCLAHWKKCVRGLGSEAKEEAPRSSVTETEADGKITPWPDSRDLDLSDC
Sequence of GPR55 (Q9Y2T6 whole entry, species assumed): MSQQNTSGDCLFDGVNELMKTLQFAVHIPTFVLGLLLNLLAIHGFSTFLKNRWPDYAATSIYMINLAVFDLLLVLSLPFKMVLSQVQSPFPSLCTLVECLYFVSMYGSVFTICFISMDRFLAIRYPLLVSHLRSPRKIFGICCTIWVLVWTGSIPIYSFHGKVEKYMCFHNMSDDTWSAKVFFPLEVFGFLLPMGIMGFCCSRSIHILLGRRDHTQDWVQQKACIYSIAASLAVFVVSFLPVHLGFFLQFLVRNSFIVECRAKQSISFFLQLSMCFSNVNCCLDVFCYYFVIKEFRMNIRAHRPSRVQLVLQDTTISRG

With `CCN(CC)CC(=O)Nc1c(C)cccc1C` [lidocaine], the “block of cortical KCl induced periorbital allodynia” value in test [1] (dural lidocaine 2%, 5 μl, 10-15 min pretreatment, cortical KCl 0.5 μL, 1M) is “not blocked”. The “effect on periorbital allodynia after dural KCl” value in test [1] (lidocaine pretreatment, dural KCl 5 uL, 1M) is “no effect”.
Consider `O=C(N1CCCCC1c1ccccc1)n1cc(-c2ccc(-c3cccc(CO)c3)cc2)nn1` (centres unmarked) [KT182, (4-(3′-(hydroxymethyl)-[1,1′-biphenyl]-4-yl)-1H-1,2,3-triazol-1-yl)(2-phenylpiperidin-1-yl) methanone], for which the “reversal of periorbital allodynia” value in test [1] (KT182 2 mg/kg IP after cortical KCl (0.5 μL)) is “reverses”. In addition, in test [1] (KT182 2 mg/kg IP before cortical KCl (0.5 μL)), the “prevention of periorbital allodynia” value was “prevents”.
In the case of `O=C(ON1C(=O)CCC1=O)N1CCN(C(c2ccc(Cl)cc2)c2ccc(Cl)cc2)CC1` [MJN110, 2,5-dioxopyrrolidin-1-yl 4-(bis(4-chlorophenyl)methyl)piperazine-1-carboxylate], the “reversal of periorbital allodynia” value in test [1] (MJN110 10 mg/kg IP after cortical KCl (0.5 μL)) was “reverses”. The “prevention of periorbital allodynia” value in test [1] (MJN110 10 mg/kg IP before cortical KCl (0.5 μL)) is given as “prevents”.
In the case of `Cc1c(C(=O)NN2CCCCC2)nn(-c2ccc(Cl)cc2Cl)c1-c1ccc(Cl)cc1` [rimonabant], the “shift of onset of MJN110 effect” value in test [1] (rimonabant 1 mg/kg IP prior to KCl, MJN110 10 mg/kg IP) amounted to 30 min.
Turning to `CCCCC/C=C\C/C=C\C/C=C\C/C=C\CCCC(=O)OC(CO)CO` [2AG, 2-arachidonoylglycerol], in test [2], the Ki – broadly, the dissociation constant of the complex between target and ligand, obtained from inhibition or displacement – is 175 to 1400 nM. In test [3], the EC50 (commonly the concentration at which the effect is half-maximal) is 4 nM and the Emax (commonly the maximal effect, on the per cent scale that the assay sets) is 34%. The EC50 in test [4] was 618 nM.
As to `CCCCCc1cc(O)c2c(c1)OC(C)(C)[C@@H]1CCC(C)=C[C@@H]21` [THC], the “reduction of migraine pain” value in test [5] (acute) is “effective”. Besides, the migraine-like pain entry in test [5] (repeated exposure) is recorded as “increases”.
Consider SR144528, for which the “effect on the anti-allodynic effect of MJN110” value in test [1] (SR144528 1 mg/kg IP prior to KCl, MJN110 10 mg/kg IP) is listed as “blocked”.
